Calls of active or inactive are those of the source.
Experiments:
[1] = off-target signal loss in HeLa-CEM21 co-culture – HeLa F-luc CTL cells, cherry-picked, counter-screen for HIV-1 Env fusion inhibitor project, dose response (AID 652040); assay type: functional, cell-based;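 also: potency for signal decrease marking cytotoxic or nonspecific inhibition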
[2] = ZM109 Env clade C HIV-1 fusion inhibitors, dose response, HeLa effector, CEM target cells, luciferase, cherry-pick (AID 652058); assay type: functional, cell-based
[3] = inhibitors of HIV Env-driven cell fusion, dose response, cherry-pick (AID 652057); assay type: functional, cell-based
[4] = inhibitors of clade B AD8 Env fusion, dose response, cell-based, cherry-pick (AID 652062); assay type: functional;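 also: luciferase signal from cell-cell fusion driven by HIV-1 clade B AD8 Env; potency is for inhibitors of fusion seen as a drop in luminescence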
[5] = Shn3 3'UTR reporter inhibitors, dose response, cell-based, Clone20 osteoblasts, firefly luciferase, cherry-picked (AID 624132); assay type: functional;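 also: firefly luciferase luminescence from reporter carrying the Shn3 3'UTR in osteoblasts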
[6] = Luminescence Cell-Based Dose Response HTS to Identify Activators of Luciferase Translation or Activity in H4 […] Cells. [Related pubchem assays: 1829 (Project Summary), 1814 (Primary HTS)]; assay type: functional
[7] = Luminescence Cell-Based Dose Confirmation HTS to Identify Activators of 5'UTR Stem-Loop Driven Alpha-Synuclein mRNA Translation in H4 Neuroglioblastoma Cells. [Related pubchem assays: 1829 (Project Summary), 1814 (Primary HTS)]; assay type: functional
H4 = assay: Luminescence Cell-Based Dose Response HTS to Identify Activators of 5'UTR Stem-Loop Driven Prion Protein mRNA Translation in H4 Neuroglioblastoma Cells. [Related pubchem assays: 1829 (Project Summary), 1814 (Primary HTS)]; assay type: functional; details: Homo sapiens
Large T antigen = Large T antigen (Simian virus 40, UniProt P03070); assay type: functional, Betapolyomavirus macacae;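 also: Confirmatory-stage PubChem screen for compounds that inhibit SV40 T antigen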
[8] = molecular target: T1, Histone-lysine N-methyltransferase NSD2 (Homo sapiens, UniProt O96028); assay type: biochemical
T1 sequence (O96028 whole entry): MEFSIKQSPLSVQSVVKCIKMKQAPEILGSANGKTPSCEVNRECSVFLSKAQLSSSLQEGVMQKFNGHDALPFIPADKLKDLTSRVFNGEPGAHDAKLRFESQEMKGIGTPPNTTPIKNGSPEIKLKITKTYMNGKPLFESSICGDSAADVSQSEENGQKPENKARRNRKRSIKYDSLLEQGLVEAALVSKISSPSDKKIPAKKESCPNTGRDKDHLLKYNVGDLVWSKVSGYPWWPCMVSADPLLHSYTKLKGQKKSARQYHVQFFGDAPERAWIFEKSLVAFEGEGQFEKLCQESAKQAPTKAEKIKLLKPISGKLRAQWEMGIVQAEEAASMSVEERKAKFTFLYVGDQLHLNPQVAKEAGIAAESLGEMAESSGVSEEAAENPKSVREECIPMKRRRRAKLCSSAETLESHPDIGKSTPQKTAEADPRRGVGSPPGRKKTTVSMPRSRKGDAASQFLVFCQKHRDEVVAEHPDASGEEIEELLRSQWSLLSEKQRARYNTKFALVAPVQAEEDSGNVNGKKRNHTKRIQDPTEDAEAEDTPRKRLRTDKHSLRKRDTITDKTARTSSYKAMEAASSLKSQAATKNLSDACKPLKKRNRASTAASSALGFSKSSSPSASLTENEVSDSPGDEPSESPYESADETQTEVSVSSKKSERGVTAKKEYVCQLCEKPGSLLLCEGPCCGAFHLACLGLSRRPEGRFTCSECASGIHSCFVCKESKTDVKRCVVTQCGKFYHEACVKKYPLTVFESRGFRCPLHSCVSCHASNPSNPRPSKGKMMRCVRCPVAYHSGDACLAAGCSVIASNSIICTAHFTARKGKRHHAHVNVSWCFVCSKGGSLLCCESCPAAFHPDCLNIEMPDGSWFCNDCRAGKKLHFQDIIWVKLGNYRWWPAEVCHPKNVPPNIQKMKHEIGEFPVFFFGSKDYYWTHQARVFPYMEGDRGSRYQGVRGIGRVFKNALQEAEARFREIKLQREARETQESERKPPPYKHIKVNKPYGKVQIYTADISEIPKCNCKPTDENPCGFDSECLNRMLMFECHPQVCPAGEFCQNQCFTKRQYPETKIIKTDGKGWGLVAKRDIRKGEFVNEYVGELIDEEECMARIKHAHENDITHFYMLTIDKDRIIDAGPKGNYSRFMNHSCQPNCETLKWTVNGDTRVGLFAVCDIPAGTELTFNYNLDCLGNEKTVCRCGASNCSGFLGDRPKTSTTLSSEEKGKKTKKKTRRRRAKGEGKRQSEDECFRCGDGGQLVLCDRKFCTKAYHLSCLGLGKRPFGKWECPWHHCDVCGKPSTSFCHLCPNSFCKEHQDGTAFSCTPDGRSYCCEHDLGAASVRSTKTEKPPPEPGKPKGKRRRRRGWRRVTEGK

Protein RecA = molecular target: T2, Protein RecA (Mycobacterium tuberculosis, UniProt P9WHJ3); assay: Fluorescence Cell-Free Homogeneous Dose Retest to Identify Inhibitors of RecA-Intein Splicing Activity. [Related pubchem assays (depositor defined):AID2097, AID2223, AID489010, AID492950]; assay type: functional
T2 sequence (P9WHJ3 whole entry): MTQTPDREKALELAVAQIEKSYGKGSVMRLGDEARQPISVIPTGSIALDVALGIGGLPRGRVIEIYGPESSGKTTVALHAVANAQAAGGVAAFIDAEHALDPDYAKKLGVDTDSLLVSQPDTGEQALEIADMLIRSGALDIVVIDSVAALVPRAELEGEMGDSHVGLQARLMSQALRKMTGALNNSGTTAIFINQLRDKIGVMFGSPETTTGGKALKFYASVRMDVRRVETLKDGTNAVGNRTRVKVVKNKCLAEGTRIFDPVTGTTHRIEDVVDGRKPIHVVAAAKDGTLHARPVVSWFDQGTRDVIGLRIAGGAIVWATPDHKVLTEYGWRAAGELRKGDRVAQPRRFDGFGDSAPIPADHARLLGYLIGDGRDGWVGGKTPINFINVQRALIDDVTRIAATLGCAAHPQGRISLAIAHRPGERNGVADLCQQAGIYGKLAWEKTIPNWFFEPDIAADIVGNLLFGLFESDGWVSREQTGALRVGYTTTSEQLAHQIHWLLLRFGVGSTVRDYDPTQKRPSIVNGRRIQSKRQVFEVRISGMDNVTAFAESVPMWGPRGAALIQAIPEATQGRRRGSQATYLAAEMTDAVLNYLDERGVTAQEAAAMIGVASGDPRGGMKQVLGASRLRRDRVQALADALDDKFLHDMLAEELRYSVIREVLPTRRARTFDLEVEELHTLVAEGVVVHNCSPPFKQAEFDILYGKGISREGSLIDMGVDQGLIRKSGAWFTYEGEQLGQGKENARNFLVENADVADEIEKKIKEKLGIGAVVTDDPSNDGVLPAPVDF

Fatty acid synthase [9] = molecular target: T3, Fatty acid synthase (Homo sapiens, UniProt P49327); assay: FAS thioesterase domain inhibitors, dose response, biochemical, endpoint fluorescence intensity, uHTS hits (AID 624327); assay type: functional;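 also: fluorescence from hydrolysis of an O-methyl fluorescein acyl ester substrate by the enzyme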
[10] = molecular target: T4, Replicative DNA helicase DnaB (Mycobacterium tuberculosis, UniProt P9WMR3); assay: DnaB intein splicing inhibitors, dose response, biochemical, cell-free fluorescence (AID 449749); assay type: functional
T4 sequence (P9WMR3 whole entry): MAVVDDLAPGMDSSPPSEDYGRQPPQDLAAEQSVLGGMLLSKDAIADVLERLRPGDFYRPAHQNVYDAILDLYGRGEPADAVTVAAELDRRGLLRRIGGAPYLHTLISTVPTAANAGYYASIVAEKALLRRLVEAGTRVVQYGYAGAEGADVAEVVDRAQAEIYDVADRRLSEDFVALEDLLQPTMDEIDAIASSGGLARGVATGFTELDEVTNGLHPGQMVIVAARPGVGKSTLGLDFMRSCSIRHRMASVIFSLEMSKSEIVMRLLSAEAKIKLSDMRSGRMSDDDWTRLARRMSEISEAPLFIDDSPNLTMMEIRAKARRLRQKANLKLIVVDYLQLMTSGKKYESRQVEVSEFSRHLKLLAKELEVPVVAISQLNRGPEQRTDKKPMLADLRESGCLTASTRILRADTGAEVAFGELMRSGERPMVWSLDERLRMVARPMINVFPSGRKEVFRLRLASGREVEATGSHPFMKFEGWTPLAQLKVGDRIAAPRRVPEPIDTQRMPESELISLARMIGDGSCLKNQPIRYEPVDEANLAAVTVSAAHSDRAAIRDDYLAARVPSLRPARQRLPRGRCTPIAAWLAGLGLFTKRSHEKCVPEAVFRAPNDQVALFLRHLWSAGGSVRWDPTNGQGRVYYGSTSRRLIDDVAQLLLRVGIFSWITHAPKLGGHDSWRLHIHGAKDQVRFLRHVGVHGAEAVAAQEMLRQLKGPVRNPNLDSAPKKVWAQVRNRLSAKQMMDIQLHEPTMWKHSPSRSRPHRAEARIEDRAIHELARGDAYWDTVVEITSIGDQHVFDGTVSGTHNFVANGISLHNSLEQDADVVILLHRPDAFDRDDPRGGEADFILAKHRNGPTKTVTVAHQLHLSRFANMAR

Fatty acid synthase [11] = molecular target: T3, Fatty acid synthase; assay: FAS thioesterase domain inhibitors, dose response, biochemical, kinetic fluorescence intensity (AID 624326); assay type: functional;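 also: rate of fluorescence rise from hydrolysis of a fluorogenic O-methyl fluorescein ester substrate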
[12] = molecular target: FAD-linked sulfhydryl oxidase ALR (Homo sapiens, UniProt P55789); assay: inhibitors of human ALR sulfhydryl oxidase, dose response, biochemical, H2O2 detection, luminescence, cherry-pick (AID 493248)
[13] = molecular target: T5, Rac GTPase-activating protein 1 (Homo sapiens, UniProt Q9H0H5); assay: MgcRacGAP GTPase-activating activity inhibitors, confirmation, biochemical, ADP Hunter fluorescence, primary and confirmatory (AID 624330); assay type: functional
T5 sequence (Q9H0H5 whole entry): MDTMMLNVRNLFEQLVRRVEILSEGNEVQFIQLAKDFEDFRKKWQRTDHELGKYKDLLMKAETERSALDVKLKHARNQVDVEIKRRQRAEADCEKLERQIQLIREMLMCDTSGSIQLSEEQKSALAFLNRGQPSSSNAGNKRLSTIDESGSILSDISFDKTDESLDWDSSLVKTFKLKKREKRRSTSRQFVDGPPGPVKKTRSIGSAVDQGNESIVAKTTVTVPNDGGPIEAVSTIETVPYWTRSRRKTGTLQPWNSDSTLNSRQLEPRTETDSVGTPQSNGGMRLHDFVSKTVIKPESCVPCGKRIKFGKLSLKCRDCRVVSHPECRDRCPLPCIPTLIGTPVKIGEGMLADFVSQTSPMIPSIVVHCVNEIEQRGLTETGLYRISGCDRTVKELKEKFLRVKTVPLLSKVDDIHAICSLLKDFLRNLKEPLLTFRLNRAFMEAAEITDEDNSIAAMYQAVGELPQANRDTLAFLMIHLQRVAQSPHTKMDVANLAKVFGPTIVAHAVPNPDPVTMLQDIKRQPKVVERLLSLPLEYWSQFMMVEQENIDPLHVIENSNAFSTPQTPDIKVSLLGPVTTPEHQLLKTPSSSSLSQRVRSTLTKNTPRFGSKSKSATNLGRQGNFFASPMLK

cells = assay type: functional

T3 sequence (P49327 whole entry, the tested form may be a part): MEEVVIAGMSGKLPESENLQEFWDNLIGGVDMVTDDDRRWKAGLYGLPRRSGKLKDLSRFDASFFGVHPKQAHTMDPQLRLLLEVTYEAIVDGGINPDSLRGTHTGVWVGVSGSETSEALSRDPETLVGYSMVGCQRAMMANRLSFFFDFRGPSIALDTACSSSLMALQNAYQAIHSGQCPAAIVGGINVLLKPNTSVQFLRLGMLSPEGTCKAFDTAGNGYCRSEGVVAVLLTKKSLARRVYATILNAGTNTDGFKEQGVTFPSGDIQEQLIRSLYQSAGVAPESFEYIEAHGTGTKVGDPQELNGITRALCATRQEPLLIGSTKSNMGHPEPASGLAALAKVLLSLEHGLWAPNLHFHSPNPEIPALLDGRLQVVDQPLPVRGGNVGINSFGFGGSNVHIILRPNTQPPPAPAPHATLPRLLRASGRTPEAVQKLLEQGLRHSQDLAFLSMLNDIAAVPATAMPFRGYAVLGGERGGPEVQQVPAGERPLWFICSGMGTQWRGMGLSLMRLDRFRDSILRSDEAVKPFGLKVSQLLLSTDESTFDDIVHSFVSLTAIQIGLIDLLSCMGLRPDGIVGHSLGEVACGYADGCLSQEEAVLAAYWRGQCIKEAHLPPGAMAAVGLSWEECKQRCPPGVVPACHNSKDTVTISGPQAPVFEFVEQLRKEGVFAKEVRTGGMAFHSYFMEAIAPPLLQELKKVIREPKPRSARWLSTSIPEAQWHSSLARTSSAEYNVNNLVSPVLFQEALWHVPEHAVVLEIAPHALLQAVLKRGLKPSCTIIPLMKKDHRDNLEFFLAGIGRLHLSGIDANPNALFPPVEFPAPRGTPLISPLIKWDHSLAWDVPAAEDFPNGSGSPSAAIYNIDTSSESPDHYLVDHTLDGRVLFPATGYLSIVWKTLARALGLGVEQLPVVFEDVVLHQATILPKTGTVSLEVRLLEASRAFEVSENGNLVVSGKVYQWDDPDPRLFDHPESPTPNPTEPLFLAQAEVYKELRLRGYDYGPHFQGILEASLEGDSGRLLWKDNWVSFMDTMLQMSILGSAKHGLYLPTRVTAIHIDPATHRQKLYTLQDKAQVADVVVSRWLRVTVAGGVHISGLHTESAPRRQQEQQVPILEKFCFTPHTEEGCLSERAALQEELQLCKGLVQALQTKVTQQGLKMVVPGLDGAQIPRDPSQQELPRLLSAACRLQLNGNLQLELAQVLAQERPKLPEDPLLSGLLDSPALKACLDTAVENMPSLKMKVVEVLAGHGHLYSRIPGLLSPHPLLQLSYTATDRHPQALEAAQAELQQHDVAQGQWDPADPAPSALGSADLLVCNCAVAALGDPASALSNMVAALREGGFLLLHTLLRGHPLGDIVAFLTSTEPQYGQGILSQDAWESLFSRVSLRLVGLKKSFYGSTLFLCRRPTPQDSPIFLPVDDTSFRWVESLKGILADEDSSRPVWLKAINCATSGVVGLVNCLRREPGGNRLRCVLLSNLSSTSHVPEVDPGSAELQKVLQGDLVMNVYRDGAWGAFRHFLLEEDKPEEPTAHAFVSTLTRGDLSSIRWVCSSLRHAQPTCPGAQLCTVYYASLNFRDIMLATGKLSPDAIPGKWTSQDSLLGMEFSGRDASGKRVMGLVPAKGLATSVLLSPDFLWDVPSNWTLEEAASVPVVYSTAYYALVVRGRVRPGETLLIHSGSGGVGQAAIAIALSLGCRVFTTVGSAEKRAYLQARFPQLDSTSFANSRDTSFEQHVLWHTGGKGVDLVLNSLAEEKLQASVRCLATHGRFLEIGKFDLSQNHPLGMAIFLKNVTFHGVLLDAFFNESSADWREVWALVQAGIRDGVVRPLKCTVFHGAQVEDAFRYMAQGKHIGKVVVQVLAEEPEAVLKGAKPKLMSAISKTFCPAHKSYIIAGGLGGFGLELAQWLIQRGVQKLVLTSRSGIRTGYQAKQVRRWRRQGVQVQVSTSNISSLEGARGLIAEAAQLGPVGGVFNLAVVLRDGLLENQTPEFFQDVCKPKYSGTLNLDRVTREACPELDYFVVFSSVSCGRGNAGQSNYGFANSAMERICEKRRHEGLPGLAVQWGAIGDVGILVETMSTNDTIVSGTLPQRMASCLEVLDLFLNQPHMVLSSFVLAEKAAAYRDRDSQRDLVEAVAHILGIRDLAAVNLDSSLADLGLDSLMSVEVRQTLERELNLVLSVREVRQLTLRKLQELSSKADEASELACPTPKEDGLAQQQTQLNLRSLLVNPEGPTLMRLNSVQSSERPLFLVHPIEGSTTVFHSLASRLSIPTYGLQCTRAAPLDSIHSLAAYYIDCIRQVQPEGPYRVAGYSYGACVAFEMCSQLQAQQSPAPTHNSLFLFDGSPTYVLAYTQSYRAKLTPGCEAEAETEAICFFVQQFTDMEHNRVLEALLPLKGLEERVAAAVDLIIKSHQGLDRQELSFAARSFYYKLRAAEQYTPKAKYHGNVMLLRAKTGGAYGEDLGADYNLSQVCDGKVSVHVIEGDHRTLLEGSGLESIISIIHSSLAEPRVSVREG
Large T antigen, sequence (P03070 whole entry): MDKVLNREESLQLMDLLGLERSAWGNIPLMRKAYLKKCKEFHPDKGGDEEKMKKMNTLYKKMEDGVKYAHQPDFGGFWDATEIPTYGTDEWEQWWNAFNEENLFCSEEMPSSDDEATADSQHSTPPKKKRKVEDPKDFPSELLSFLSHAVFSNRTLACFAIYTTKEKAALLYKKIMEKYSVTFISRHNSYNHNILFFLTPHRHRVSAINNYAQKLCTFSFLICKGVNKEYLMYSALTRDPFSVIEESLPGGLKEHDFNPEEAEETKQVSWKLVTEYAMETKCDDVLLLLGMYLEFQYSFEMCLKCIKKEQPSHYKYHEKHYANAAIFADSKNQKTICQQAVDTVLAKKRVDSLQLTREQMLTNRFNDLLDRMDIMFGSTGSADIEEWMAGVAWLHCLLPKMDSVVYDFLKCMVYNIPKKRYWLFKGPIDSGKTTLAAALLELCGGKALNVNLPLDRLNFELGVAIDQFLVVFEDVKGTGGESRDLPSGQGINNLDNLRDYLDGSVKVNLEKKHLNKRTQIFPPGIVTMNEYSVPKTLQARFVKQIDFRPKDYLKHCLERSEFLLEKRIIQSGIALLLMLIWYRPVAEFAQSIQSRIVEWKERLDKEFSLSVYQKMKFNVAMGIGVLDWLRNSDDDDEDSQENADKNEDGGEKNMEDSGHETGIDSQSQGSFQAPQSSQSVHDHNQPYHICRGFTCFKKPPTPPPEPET
FAD-linked sulfhydryl oxidase ALR, sequence (P55789 whole entry): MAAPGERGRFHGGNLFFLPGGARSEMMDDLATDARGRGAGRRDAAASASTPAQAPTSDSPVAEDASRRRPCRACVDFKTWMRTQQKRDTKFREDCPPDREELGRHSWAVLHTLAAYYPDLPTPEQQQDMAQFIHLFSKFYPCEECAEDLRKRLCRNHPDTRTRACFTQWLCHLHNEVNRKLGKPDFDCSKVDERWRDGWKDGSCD

O=C(N(Cc1ccccc1)c1ccccn1)C12CC3CC(CC(C3)C1)C2
AC50 [1]: 2.99 µM (active)
AC50 [2]: 2.19 µM (active)
AC50 [3]: 1.62 µM (active)
AC50 [4]: 6.03 µM (active)

Cc1oc(-c2ccccc2F)nc1CN1CCC(C(=O)NCCC2=CCCCC2)CC1
AC50 [2]: 4.91 µM (active)
AC50 [3]: 5.29 µM (active)
AC50 [4]: 1.28 µM (active)

CCOc1ccc2nc(SC3CC(=O)N(c4ccc(C)cc4)C3=O)sc2c1 (stereo not given)
AC50 [5]: 15.6 µM (active)

O=C(c1ccco1)N1CCCC(Nc2ccc3c(c2)OCCO3)C1 (stereo not given)
EC50 [6]: 9.98 µM (active)
EC50 [7]: 8.81 µM (active)
EC50 (H4): 37.7 µM (active)
IC50 (Large T antigen): 29.3 µM (active)

Cc1cc(Oc2ccc(C#N)cc2)nc(NCc2ccccc2)n1
AC50 [1]: > 70 µM (inactive)
AC50 [2]: 5.62 µM (active)
AC50 [4]: 9.81 µM (active)

CCc1ccc(C2CC(=O)N3CN(c4ccccc4)CSC3=C2C#N)cc1 (stereo not given)
IC50 (Large T antigen): 70.1 µM (active)

COc1ccc(S(=O)(=O)Nc2ccc3c(c2)CC(=O)N([C@@H](C)CO)C[C@H](C)[C@H](CN(C)S(=O)(=O)c2ccc(F)cc2)O3)cc1
AC50 [2]: 11.4 µM (active)
AC50 [3]: 10 µM (active)
AC50 [4]: 18.6 µM (active)

Cc1cc([N+](=O)[O-])cc2c1NC(=O)C2(O)N1CCOCC1 (stereo not given)
AC50 [8]: 15.7 µM (active)

CNCc1ccc(OCc2ccccc2)c(OC)c1
AC50 [8]: > 20 µM (inactive)

CCN1Cc2c(/C=C/c3ccccc3)nc3ccc(OC)cc3c2N(c2cccc(Cl)c2)C1
EC50 (Protein RecA): 17.6 µM (active)
IC50 (Fatty acid synthase [9]): 2.35 µM (active)
AC50 [10]: > 380 µM (inactive)
IC50 (Fatty acid synthase [11]): 3.61 µM (active)

CCN(CC)CCSc1nc2ccccc2c(=S)n1-c1ccccc1
AC50 [8]: > 20 µM (inactive)

COc1cc(/C=N/n2nnnc2N)ccc1O
AC50 [12]: 1.2 µM (active)
IC50 [13]: 16.9 µM (active)
IC50 (Large T antigen): 4.83 µM (active)

COc1ccc(/N=C/c2c(O)cc(C)oc2=O)cc1
IC50 [13]: 85.2 µM (active)
IC50 (Large T antigen): 7.84 µM (active)

CNCc1ccccc1OCc1ccc(F)cc1
AC50 [8]: > 20 µM (inactive)

CC(NC(=O)c1cc([N+](=O)[O-])cc([N+](=O)[O-])c1)c1ccc(-n2ccnc2)cc1 (stereo not given)
IC50 (Fatty acid synthase [9]): 10.1 µM (active)
IC50 (Fatty acid synthase [11]): 6.68 µM (active)
IC50 (cells): 1.43 µM (active)

From ChEMBL document CHEMBL1201862, “PubChem BioAssay data set” (2004)
